The text below walks through data of patent publication EP4741392A1, “1H-PYRAZOLO[4,3-C]PYRIDINE COMPOUND, AND COMPOSITION THEREOF AND USE THEREOF” (Shenzhen TargetRx Co., Ltd., priority 2023, dated 2025).

What all share (type): cell-based
The test system of one assay is NIH/3T3 BTK WT cells. In words: Phosphor-BTK(Y223) assay, adherent cells. The note with it: Mus musculus, NIH3T3, phosphorylated BTK Y223, NIH/3T3 BTK WT cells; read-out: NIH/3T3 BTK-WT pBTK. The method, then: (§1) The purpose of this assay was to simply, quickly and directly detect the level of endogenous BTK phosphorylation in cells.
(§2) The steps for handling adherent cells were as follows: • 1) NIH/3T3 BTK WT cells (7.5 k/well) and NIH/3T3 BTK C481S cells (10 k/well) were plated in a 96-well plate, respectively, and cultured at 37 °C and 5% CO2 overnight. • 2) A 3-fold final concentration gradient dilution of a compound was prepared, and 50 µL of it was taken and added to 100 µL of cell culture. 0.5% DMSO was used as a positive control for cell growth. • 3) The plate was incubated at 37 °C and 5% CO2 for 0.5 h. • 4) Na3VO4 at a final concentration of 1mM was added, and the plate was incubated at 37 °C and 5% CO2 for 2 hours. • 5) During the incubation, the following reagents were prepared: • 1x added lysis buffer: 3 vol ddH2O + 1 vol 4x lysis buffer + 100x blocking reagent. • p-BTK (Y223) cryptate-antibody and p-BTK (Y223) d2-antibody working solutions: 1 volume of each cryopreserved antibody (stored at - 20 °C) was added to 19 times the volume of assay buffer (stored at 4 °C). • 6) After the incubation was completed, the medium was removed and 50 µL of 1x added lysis buffer was added. The plate was centrifuged at 500 rpm at room temperature for 30 min. • 7) The lysate was mixed well and 16 µL of it was transferred to a 384-well plate. 1 × added lysis buffer was used as a blank control. • 8) 4 µL of pre-mixed working solutions of the two antibodies (cryptate Ab:d2 Ab = 1:1) was added, and the plate was sealed. • 9) The plate was incubated at room temperature overnight. 10) The plate was read at 665nm and 620nm using Biotek cytation3.0 microplate reader, and the ratio of 665/620nm of each well was calculated.
(§3) The IC50 (half-maximal phosphorylation inhibitory concentration) of the phosphorylated BTK Y223 of the compound was obtained using the following nonlinear fitting formula: Y = Bottom + (Top−Bottom)/(1+10^(∧)((LogIC50−X)*HillSlope)) [formula] • X: Log value of the compound concentration • Y: Inhibition rate (% inhibition) • Top: Maximum response • Bottom: Baseline response • HillSlope: Slope of the curve
(§4) The formula for calculating cell phosphorylation inhibition rate (inhibition rate %) was: Inhibition rate% = 1−(eachconcentrationwell-blankwell)/(positivecontrolwell−blankwell) [formula]

For a further assay, the system named is NIH/3T3 BTK C481S cells. In words: Phosphor-BTK(Y223) assay, adherent cells. The following applies: Mus musculus, NIH3T3, phosphorylated BTK Y223, NIH/3T3 BTK C481S cells; read-out: NIH/3T3 BTK-C481S pBTK. The method, then:
as §1, §2, §3, §4

The test system of the next assay is Ramos cells with BTK WT. In words: Phosphor-BTK(Y223) assay, suspended cells. The note with it: Homo sapiens, Ramos, phosphorylated BTK Y223, Ramos cells with BTK WT. The protocol: as §1
The steps for handling suspended cells were as follows: • 1) Ramos cells with BTK WT (2.5 k/well), BTK C481S (2.5 k/well), or BTK T474I (2.5 k/well) were plated in a 96-well plate, respectively. A compound of different concentration gradients was added using Tecan D300e, and the plate was incubated at 37 °C and 5% CO2 for 2 hours. • 2) 8.33 µL of 20 mM Na3VO4 was added to bring the final concentration to 5 mM, and the plate was incubated at 37 °C and 5% CO2 for 3 h. • 3) During the incubation, the following reagents were prepared: • 4x added lysis buffer: 24 vol 4x lysis buffer + 1 vol 25x blocking reagent. • p-BTK (Y223) cryptate-antibody and p-BTK (Y223) d2-antibody working solutions: 1 volume of each cryopreserved antibody (stored at - 20 °C) was added to 38 times the volume of assay buffer (stored at 4 °C), and mixed well. • 4) After the incubation was completed, 11.1 µL of 4x added lysis buffer was directly added. The plate was shaken at 800 rpm at room temperature for 30 min. • 5) The lysate was mixed well and 16 µL of it was transferred to a 384-well plate. 1 × added lysis buffer was used as a blank control. • 6) 4 µL of pre-mixed working solutions of the two antibodies (cryptate Ab:d2 Ab = 1:1) was added, and the plate was sealed. • 7) The plate was incubated at room temperature overnight. • 8) The plate was read at 665nm and 620nm using Biotek cytation3.0 microplate reader, and the ratio of 665/620nm of each well was calculated. Data analysis: IC50 was calculated using GraphPad Prism 7.0 software.
as §3, §4

Bounds are passed on as bounds.

On to `COc1ccc(F)cc1C(=O)NCc1ccc(-c2nc(C(C)C(F)(F)F)c(Br)c3[nH]nc(N)c23)cc1` (centres unmarked) [Example 4, N-(4-(3-amino-7-bromo-6-(1,1,1-trifluoropropan-2-yl)-1H-pyrazolo[4,3-c]pyridin-4-yl)benzyl)-5-fluoro-2-methoxybenzamide], for which the IC50 in the assay on NIH/3T3 BTK WT cells, in the assay with NIH/3T3 BTK C481S cells and in the assay with Ramos cells with BTK WT was greater than 50 nM in each case.

Regarding `COc1ccc(F)cc1C(=O)NCc1ccc(-c2nc(C(C)C(F)(F)F)c(-c3ccccn3)c3[nH]nc(N)c23)cc1` (centres unmarked) [Example 5, N-(4-(3-amino-7-(pyridin-2-yl)-6-(1,1,1-trifluoropropan-2-yl)-1H-pyrazolo[4,3-c]pyridin-4-yl)benzyl)-5-fluoro-2-methoxybenzamide], the IC50 in the assay on NIH/3T3 BTK WT cells, in the assay with NIH/3T3 BTK C481S cells and with Ramos cells with BTK WT was greater than 50 nM in each case.

With `COc1ccc(F)cc1C(=O)NCc1ccc(-c2nc(C(C)C(F)(F)F)c(-c3cnccn3)c3[nH]nc(N)c23)cc1` (centres unmarked) [Example 8, N-(4-(3-amino-7-(pyrazin-2-yl)-6-(1,1,1-trifluoropropan-2-yl)-1H-pyrazolo[4,3-c]pyridin-4-yl)benzyl)-5-fluoro-2-methoxybenzamide], the IC50 in the assay on NIH/3T3 BTK WT cells, in the assay on NIH/3T3 BTK C481S cells and with Ramos cells with BTK WT was greater than 50 nM each time.

As for `COc1ccc(F)cc1C(=O)NCc1ccc(-c2nc(C(C)C(F)(F)F)c(-c3cncnc3)c3[nH]nc(N)c23)cc1` (centres unmarked) [Example 10, N-(4-(3-amino-7-(pyrimidin-5-yl)-6-(1,1,1-trifluoropropan-2-yl)-1H-pyrazolo[4,3-c]pyridin-4-yl)benzyl)-5-fluoro-2-methoxybenzamide], the IC50 in the assay with NIH/3T3 BTK WT cells, in the assay on NIH/3T3 BTK C481S cells and in the assay with Ramos cells with BTK WT was greater than 50 nM in each case.

Turning to `COc1ccc(F)cc1C(=O)NCc1ccc(-c2nc(C(C)C(F)(F)F)c(-c3ccnnc3)c3[nH]nc(N)c23)cc1` (centres unmarked) [Example 11, N-(4-(3-amino-7-(pyridazin-4-yl)-6-(1,1,1-trifluoropropan-2-yl)-1H-pyrazolo[4,3-c]pyridin-4-yl)benzyl)-5-fluoro-2-methoxybenzamide], the IC50 with NIH/3T3 BTK WT cells, in the assay on NIH/3T3 BTK C481S cells and in the assay on Ramos cells with BTK WT was greater than 50 nM in each case.

On to `COc1ccc(F)cc1C(=O)NCc1ccc(-c2nc(C(C)C(F)(F)F)c(-c3ccc(C(F)(F)F)cn3)c3[nH]nc(N)c23)cc1` (centres unmarked) [Example 12, N-(4-(3-amino-7-(5-(trifluoromethyl)pyridin-2-yl)-6-(1,1,1-trifluoropropan-2-yl)-1H-pyrazolo[4,3-c]pyridin-4-yl)benzyl)-5-fluoro-2-methoxybenzamide], for which the IC50 in the assay with NIH/3T3 BTK WT cells, with NIH/3T3 BTK C481S cells and with Ramos cells with BTK WT was greater than 50 nM in each case.

For `COc1ccc(F)cc1C(=O)NCc1ccc(-c2nc(C(C)C(F)(F)F)c(-c3ccc(F)cn3)c3[nH]nc(N)c23)cc1` (centres unmarked) [Example 13, N-(4-(3-amino-7-(5-fluoropyridin-2-yl)-6-(1,1,1-trifluoropropan-2-yl)-1H-pyrazolo[4,3-c]pyridin-4-yl)benzyl)-5-fluoro-2-methoxybenzamide], the IC50 in the assay on NIH/3T3 BTK WT cells, in the assay with NIH/3T3 BTK C481S cells and with Ramos cells with BTK WT was greater than 50 nM each time.

Consider `COc1ccc(F)cc1C(=O)NCc1ccc(-c2nc(C(C)C(F)(F)F)c(-c3ccccc3)c3[nH]nc(N)c23)cc1` (centres unmarked) [Example 14, N-(4-(3-amino-7-phenyl-6-(1,1,1-trifluoropropan-2-yl)-1H-pyrazolo[4,3-c]pyridin-4-yl)benzyl)-5-fluoro-2-methoxybenzamide], for which the IC50 in the assay with NIH/3T3 BTK WT cells, in the assay on NIH/3T3 BTK C481S cells and in the assay on Ramos cells with BTK WT was greater than 50 nM each time.

As for `COc1ccc(F)cc1C(=O)NCc1ccc(-c2ncc(-c3cncnc3)c3[nH]nc(N)c23)cc1` [Example 16, N-(4-(3-amino-7-(pyrimidin-5-yl)-1H-pyrazolo[4,3-c]pyridin-4-yl)benzyl)-5-fluoro-2-methoxybenzamide], the IC50 with NIH/3T3 BTK WT cells, in the assay with NIH/3T3 BTK C481S cells and with Ramos cells with BTK WT was greater than 50 nM in each case.

With `COc1ccc(F)cc1C(=O)NCc1ccc(-c2ncc(-c3ccnnc3)c3[nH]nc(N)c23)cc1` [Example 20, N-(4-(3-amino-7-(pyridazin-4-yl)-1H-pyrazolo[4,3-c]pyridin-4-yl)benzyl)-5-fluoro-2-methoxybenzamide], the IC50 in the assay with NIH/3T3 BTK WT cells, in the assay on NIH/3T3 BTK C481S cells and in the assay with Ramos cells with BTK WT was greater than 50 nM throughout.

Regarding `COc1ccc(F)cc1C(=O)NCc1ccc(-c2ncc(-c3ccnn3C)c3[nH]nc(N)c23)cc1` [Example 32, N-(4-(3-amino-7-(1-methyl-1H-pyrazol-5-yl)-1H-pyrazolo[4,3-c]pyridin-4-yl)benzyl)-5-fluoro-2-methoxybenzamide], the IC50 with NIH/3T3 BTK WT cells, in the assay with NIH/3T3 BTK C481S cells and in the assay on Ramos cells with BTK WT was greater than 50 nM throughout.

For `COc1ccc(F)cc1C(=O)NCc1ccc(-c2ncc(-c3cnn4ccccc34)c3[nH]nc(N)c23)cc1` [Example 33, N-(4-(3-amino-7-(pyrazolo[1,5-a]pyridin-3-yl)-1H-pyrazolo[4,3-c]pyridin-4-yl)benzyl)-5-fluoro-2-methoxybenzamide], the IC50 with NIH/3T3 BTK WT cells, in the assay with NIH/3T3 BTK C481S cells and in the assay with Ramos cells with BTK WT was greater than 50 nM each time.

With `COc1ccc(F)cc1C(=O)NCc1ccc(-c2ncc(-c3cnc4ccnn4c3)c3[nH]nc(N)c23)cc1` [Example 34, N-(4-(3-amino-7-(pyrazolo[1,5-a]pyrimidin-6-yl)-1H-pyrazolo[4,3-c]pyridin-4-yl)benzyl)-5-fluoro-2-methoxybenzamide], the IC50 in the assay on NIH/3T3 BTK WT cells, in the assay with NIH/3T3 BTK C481S cells and in the assay on Ramos cells with BTK WT was greater than 50 nM throughout.

On to `COc1ccc(F)cc1C(=O)NCc1ccc(-c2ncc(-c3cccnn3)c3[nH]nc(N)c23)cc1` [Example 40, N-(4-(3-amino-7-(pyridazin-3-yl)-1H-pyrazolo[4,3-c]pyridin-4-yl)benzyl)-5-fluoro-2-methoxybenzamide], for which the results for the IC50 in the assay with NIH/3T3 BTK WT cells, with NIH/3T3 BTK C481S cells and in the assay on Ramos cells with BTK WT were 10 to 50 nM, greater than 50 nM and 10 to 50 nM, respectively.

Consider `COc1ccc(F)cc1C(=O)NCc1ccc(-c2ncc(-c3cnc4ccccn34)c3[nH]nc(N)c23)cc1` [Example 55, N-(4-(3-amino-7-(imidazo[1,2-a]pyridin-3-yl)-1H-pyrazolo[4,3-c]pyridin-4-yl)benzyl)-5-fluoro-2-methoxybenzamide], for which the IC50 with NIH/3T3 BTK WT cells, with NIH/3T3 BTK C481S cells and in the assay on Ramos cells with BTK WT was greater than 50 nM each time.

Turning to `COc1ccc(F)cc1C(=O)NCc1ccc(-c2ncc(-c3cnc4ncccn34)c3[nH]nc(N)c23)cc1` [Example 63, N-(4-(3-amino-7-(imidazo[1,2-a]pyrimidin-3-yl)-1H-pyrazolo[4,3-c]pyridin-4-yl)benzyl)-5-fluoro-2-methoxybenzamide], the IC50 in the assay on NIH/3T3 BTK WT cells, with NIH/3T3 BTK C481S cells and in the assay with Ramos cells with BTK WT was greater than 50 nM in each case.

As to `COc1ccc(F)cc1C(=O)NCc1ccc(-c2cc(C(C)C(F)(F)F)cc3[nH]nc(N)c23)cc1` (centres unmarked) [Example 86, N-(4-(3-amino-6-(1,1,1-trifluoropropan-2-yl)-1H-indazol-4-yl)benzyl)-5-fluoro-2-methoxybenzamide], the IC50 with NIH/3T3 BTK WT cells and in the assay on NIH/3T3 BTK C481S cells was greater than 50 nM in each case.
